Patent publication US20010034342A1, “Substituted urea and isothiourea derivatives as no synthase inhibitors” (priority 1993, published 2001)

Assays:
Human brain NOS = target: T1, Human brain NOS (Homo sapiens, UniProt P29475); test: Human brain NOS enzyme activity assay; type: biochemical
T1 construct: Purification of NOS from human brain; from tissue; host or cells: frozen human brain
Method: The mixture was centrifuged at 13,000 g for 1 hour and the supernatant was removed (about 2050 ml). […] The precipitate was pelleted at 13,000 g for 30 minutes and the pellet was resuspended in −400 mls of buffer A with 4 μM tetrahydrobiopterin, 1 μm FAD (Sigma), 1 μM FMN (Sigma). The solution was centrifuged at 41,000 g for 60 minutes. The supernatant was removed, frozen by pouring into liquid nitrogen, and stored overnight at −70° C. The mixture was thawed and passed through a 2′,5′ ADP-agarose column (0.4 g swelled in buffer A) at 4 ml/min. The column was washed with 100 ml buffer A, 200 ml buffer A with 500 mM NaCl, 100 ml Buffer A, then 30 ml buffer A with 5 mM NADPH. […] To the enzyme was added tetrahydrobiopterin to 10 μM, FAD and FMN to 1 μM, and tween to 0.1%. This solution was concentrated by centriprep-30 to a volume of approximately 500 μl. Human NOS was prepared completely analogously except the calmodulin-agarose column was not used.

inducible human NOS = target: T2, inducible human NOS (Homo sapiens, UniProt P35228); test: Assay for inducible human NOS (citrulline formation), enzyme from cytokine-induced DLD-1 cells; type: biochemical; details: concentration not given
T2 construct: Purification of NOS cytokine-induced human colorectal adenocarcinoma DLD-1 cells; endogenous in cells; host or cells: DLD-1 (ATCC No. CCL 221), induced with IFN-gamma, IL-6, TNF and IL-1beta

human placental NOS = target: T3, human placental NOS (Homo sapiens, UniProt P29474); test: Assay for human placental NOS (citrulline formation); type: biochemical; details: concentration not given
T3 construct: Purification of NOS from human placenta; from tissue; host or cells: fresh human placenta
T3 sequence (P29474 2-1203): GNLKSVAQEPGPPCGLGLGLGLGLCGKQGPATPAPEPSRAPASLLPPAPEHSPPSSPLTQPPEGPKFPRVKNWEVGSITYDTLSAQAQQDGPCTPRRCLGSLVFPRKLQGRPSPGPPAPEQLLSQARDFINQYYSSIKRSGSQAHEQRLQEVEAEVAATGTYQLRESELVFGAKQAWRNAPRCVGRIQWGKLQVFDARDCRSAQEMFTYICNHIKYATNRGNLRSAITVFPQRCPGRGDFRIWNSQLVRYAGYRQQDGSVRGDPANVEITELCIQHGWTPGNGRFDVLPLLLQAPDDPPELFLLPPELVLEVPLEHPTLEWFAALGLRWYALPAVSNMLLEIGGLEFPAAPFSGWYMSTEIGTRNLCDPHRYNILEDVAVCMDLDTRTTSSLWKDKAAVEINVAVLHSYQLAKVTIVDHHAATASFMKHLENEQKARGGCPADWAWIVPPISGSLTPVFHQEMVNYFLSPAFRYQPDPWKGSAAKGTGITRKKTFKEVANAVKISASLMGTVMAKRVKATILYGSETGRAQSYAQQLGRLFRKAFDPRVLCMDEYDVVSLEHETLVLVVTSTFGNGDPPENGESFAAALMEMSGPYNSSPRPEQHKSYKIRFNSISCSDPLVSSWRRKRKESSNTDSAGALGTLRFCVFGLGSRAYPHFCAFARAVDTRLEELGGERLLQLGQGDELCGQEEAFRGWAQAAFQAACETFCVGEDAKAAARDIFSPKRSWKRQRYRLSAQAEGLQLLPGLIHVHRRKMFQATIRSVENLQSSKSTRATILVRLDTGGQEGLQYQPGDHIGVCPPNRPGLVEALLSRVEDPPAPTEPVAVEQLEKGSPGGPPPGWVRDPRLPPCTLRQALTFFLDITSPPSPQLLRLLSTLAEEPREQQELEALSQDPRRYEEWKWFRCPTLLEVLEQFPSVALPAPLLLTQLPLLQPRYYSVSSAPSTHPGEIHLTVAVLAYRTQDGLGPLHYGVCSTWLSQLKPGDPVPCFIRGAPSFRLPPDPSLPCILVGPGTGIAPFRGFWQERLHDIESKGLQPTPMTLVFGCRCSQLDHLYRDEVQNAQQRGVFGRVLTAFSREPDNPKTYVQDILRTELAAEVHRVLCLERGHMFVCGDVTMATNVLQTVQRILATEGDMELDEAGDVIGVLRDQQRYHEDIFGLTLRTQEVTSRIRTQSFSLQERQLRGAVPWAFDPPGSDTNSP

T1 sequence (P29475 whole entry): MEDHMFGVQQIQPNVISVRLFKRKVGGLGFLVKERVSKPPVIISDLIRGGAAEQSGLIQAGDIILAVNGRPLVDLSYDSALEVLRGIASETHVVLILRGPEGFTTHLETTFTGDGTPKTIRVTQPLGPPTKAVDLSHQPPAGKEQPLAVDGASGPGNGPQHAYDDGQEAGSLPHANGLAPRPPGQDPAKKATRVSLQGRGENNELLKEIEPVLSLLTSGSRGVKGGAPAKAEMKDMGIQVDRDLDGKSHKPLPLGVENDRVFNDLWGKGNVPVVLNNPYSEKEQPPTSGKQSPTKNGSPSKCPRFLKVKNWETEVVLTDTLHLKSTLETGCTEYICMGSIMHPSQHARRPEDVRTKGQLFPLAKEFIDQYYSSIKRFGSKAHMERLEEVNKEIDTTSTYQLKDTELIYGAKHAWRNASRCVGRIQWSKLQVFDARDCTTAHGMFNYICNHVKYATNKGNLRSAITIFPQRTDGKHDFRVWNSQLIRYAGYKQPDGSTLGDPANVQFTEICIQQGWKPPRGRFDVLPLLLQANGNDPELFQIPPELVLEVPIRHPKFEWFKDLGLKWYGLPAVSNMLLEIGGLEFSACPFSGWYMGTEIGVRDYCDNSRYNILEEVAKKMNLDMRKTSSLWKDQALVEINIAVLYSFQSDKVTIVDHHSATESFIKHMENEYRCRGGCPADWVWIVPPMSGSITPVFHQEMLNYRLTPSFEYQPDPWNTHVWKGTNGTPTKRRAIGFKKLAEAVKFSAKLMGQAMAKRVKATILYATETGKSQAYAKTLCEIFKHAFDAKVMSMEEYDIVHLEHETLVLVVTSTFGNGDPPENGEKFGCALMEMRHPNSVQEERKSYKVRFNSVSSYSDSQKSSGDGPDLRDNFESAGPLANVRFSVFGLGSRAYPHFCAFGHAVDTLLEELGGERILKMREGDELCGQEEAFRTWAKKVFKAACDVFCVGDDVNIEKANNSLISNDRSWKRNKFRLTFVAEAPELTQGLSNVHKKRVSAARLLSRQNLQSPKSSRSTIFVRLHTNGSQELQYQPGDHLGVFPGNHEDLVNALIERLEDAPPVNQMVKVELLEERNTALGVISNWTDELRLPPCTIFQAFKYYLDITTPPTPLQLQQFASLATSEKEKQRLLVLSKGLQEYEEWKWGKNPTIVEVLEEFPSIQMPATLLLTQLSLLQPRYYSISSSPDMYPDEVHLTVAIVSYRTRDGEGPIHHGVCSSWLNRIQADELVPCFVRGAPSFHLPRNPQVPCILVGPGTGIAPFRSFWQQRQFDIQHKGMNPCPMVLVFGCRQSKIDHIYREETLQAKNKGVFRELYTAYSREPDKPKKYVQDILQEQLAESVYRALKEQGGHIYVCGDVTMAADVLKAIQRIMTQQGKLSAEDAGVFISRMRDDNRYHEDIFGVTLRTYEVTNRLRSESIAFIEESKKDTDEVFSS
T2 sequence (P35228 whole entry): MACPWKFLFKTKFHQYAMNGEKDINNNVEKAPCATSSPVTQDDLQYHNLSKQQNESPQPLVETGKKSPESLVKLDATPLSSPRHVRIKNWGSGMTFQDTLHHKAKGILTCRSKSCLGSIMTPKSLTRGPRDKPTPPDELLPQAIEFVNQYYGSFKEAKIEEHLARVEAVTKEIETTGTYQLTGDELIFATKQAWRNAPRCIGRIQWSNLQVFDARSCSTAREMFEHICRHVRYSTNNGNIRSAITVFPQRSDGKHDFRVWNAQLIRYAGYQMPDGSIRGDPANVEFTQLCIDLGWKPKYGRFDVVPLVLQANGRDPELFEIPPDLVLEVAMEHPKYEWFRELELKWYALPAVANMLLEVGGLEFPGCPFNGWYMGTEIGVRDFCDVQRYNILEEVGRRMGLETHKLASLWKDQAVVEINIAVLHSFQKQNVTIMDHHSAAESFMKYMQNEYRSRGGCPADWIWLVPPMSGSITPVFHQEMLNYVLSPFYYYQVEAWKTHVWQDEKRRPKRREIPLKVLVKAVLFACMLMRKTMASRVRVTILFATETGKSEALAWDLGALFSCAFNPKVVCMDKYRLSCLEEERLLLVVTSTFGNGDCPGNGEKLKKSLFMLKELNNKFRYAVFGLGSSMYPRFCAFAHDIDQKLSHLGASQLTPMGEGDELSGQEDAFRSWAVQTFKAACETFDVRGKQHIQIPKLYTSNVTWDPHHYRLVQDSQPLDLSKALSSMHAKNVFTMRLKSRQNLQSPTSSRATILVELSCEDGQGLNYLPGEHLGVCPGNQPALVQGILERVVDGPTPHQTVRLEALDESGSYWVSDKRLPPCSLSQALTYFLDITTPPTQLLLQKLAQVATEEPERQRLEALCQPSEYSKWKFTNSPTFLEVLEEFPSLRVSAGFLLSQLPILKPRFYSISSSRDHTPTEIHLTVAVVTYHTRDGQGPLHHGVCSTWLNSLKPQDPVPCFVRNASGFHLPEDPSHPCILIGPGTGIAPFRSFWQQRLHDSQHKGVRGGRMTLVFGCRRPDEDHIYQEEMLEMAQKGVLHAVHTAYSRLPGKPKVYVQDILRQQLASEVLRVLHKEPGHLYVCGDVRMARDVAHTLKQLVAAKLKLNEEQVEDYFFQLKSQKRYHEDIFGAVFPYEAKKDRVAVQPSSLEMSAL

Row | inhibition at 25 µM (Human brain NOS; @ 25 μM inhibitor, read-out: Human Brain, percent (inhibition) @ 25 μM) | melting point | Human Inducible, percent (inhibition), concentration not given (inducible human NOS) | Human Placental, percent (inhibition), concentration not given (human placental NOS) | Human Brain, percent (inhibition), concentration not given (Human brain NOS; concentration not given) | SMILES
1 | 11% | 71 to 72 °C | 0% | 0% |  | N=C(Nc1ccc(C(F)(F)F)cc1)SCc1ccccc1 [Example 2A, S-Benzyl-N-[4-(trifluoromethyl)phenyl]isothiourea]
2 |  | 121 to 123 °C | 4% | 14% | 24% | COC(=N)Nc1ccc(C(F)(F)F)cc1 [Example 3, O-Methyl-N-(4-(trifluoromethyl)phenyl)isourea]
